{
  "source": "patent US7378402B2",
  "about": "“Anti-viral nucleosides” (Roche Palo Alto LLC, priority 2004, dated 2008)",
  "key": {"HIV": {"tested_on": "HIV", "conditions": "cited from earlier work"}, "[1]": {"tested_on": "HCV replicon RNA (Renilla luciferase HCV replicon cells 2209-23, human hepatoma Huh7)", "assay": "Renilla luciferase HCV replicon assay", "type": "cell-based, hepatitis C virus (HCV)", "conditions": "Huh-7, 72 h; replicon cells 2209-23, incubated three days at 37° C.; concentration reducing replicon level by 50%"}, "[2]": {"conditions": "monotherapy; cited from earlier work"}},
  "data": [
    {"smiles": "CCCCC(=O)O[C@@H]1[C@H](n2ccc(N)nc2=O)O[C@@](CO)(N=[N+]=[N-])[C@H]1OC(=O)CCCC", "values": [
      {"measurement": "melting point", "value": "160.4 to 162.2", "unit": "°C"}
    ]},
    {"smiles": "CC(C)C(NC(=O)OC(C)(C)C)C(=O)OC[C@@]1(N=[N+]=[N-])O[C@@H](n2ccc(N)nc2=O)[C@@H](O)[C@@H]1O", "note": "(stereo partly shown)", "values": [
      {"measurement": "melting point", "value": "106.9 to 107.3", "unit": "°C"}
    ]},
    {"smiles": "CCCCCCCCCCCCCC(=O)OC[C@@]1(N=[N+]=[N-])O[C@@H](n2ccc(N)nc2=O)[C@@H](O)[C@@H]1O", "values": [
      {"measurement": "melting point", "value": "110.3 to 119.3", "unit": "°C"}
    ]},
    {"smiles": "C#CC1(CO)OC(n2ccc(N)nc2=O)C(O)C1O", "note": "(stereo not shown) [Compound 12a, 4-Ethynyl-cytarabine]", "values": [
      {"measurement": "anti-HIV activity", "setting": "HIV", "value": "good anti-HIV activity"}
    ]},
    {"smiles": "[N-]=[N+]=N[C@]1(CO)O[C@@H](n2ccc(N)nc2=O)[C@@H](O)[C@@H]1O", "note": "[Compound I-1, 4-Amino-1-((2R,3S,4S,5R)-5-azido-3,4-dihydroxy-5-hydroxymethyl-tetrahydro-furan-2yl)-1H-pyrimidin-2-one]", "values": [
      {"measurement": "IC50", "setting": "[1]", "value": 220, "unit": "nM"}
    ]},
    {"smiles": "NC(=O)c1ncn([C@@H]2O[C@H](CO)[C@@H](O)[C@H]2O)n1", "note": "[ribavirin, 1-((2R,3R,4S,5R)-3,4-Dihydroxy-5-hydroxymethyl-tetrahydro-furan-2-yl)-1H-[1,2,4]triazole-3-carboxylic acid amide]", "values": [
      {"measurement": "effect on serum levels of HCV-RNA", "setting": "[2]", "value": "does not lower"},
      {"measurement": "patients in whom serum amino transferase levels are reduced to normal", "setting": "[2]", "value": 40, "unit": "%"}
    ]}
  ]
}
